{"source": "patent US20240299504A1", "about": "“COMPOSITIONS AND METHODS FOR TREATING ALZHEIMERS DISEASE” (priority 2023, published 2024)", "key": {"osteocalcin": {"test_system": "osteocalcin", "assay": "Serum osteocalcin ELISA (bone formation marker)", "assay_type": "in vivo, mouse", "conditions": "6-MO female 5×FAD vs control mice; 50 μg/Kg s.c. intermittent", "description": "(§1) Parathyroid hormone (human) was purchased from TOCRIS Bioscience (Cat #3011/1, Abingdon, United Kingdom). WT or 5×FAD mice (both male and female) were treated with PTH1-34 intermittently [once daily injection of hPTH1-34 (50 μg/Kg) or vehicle (0.9% sodium chloride) (as a control) by subcutaneous injection, starting at 2-MO, 5 days per week] as described previously. Mice were then subjected to behavioral tests and sacrificed for examinations of their bone and brain phenotypes at the indicated ages.\nSubmandibular blood collection was performed in anesthetized mice. A swift lancing motion is used to puncture the vessel. Blood sample (up to 200 μl) was collected with a pipette or other collection tube, allowed to stand at room temperature for 30 min and centrifuged for 15 min at 3000 rpm. Supernatant serum was aliquot and frozen at −80° C. until use. Mouse serum levels of osteocalcin (a marker for bone formation), PYD (pyridinoline, a marker for bone resorption), and PTH were measured using mouse osteocalcin Elisa kit (QUIDEL Corporation), METRA Serum PYD EIA kit (QUIDEL Corporation, San Diego, CA, USA), and mouse PTH Elisa kit (MyBioSource), respectively, following the manufacturers' instruction."}, "5×FAD mice": {"test_system": "5×FAD mice", "assay": "Y-maze test", "assay_type": "in vivo, mouse", "conditions": "5×FAD female mice ~5-MO vs Veh-treated 5×FAD female", "description": "as §1\nMice (female and male) at the age of ˜5-MO were subjected to behavioral studies. The experimental procedures are described as previously. […] The total arm entries and the number of tri-ads were recorded to quantify the percentage of spontaneous alternation. For novel object recognition (NOR), which tests mouse's memory ability for a novel object, 20 min were recorded to analyze the time to explore the old object vs. the new object of each mouse. […] During test trials, one of the objects was replaced with a new object and mice were free to explore for another 20 min, and the time spent exploring the new object and the old object was recorded. The discrimination index is quantified as the novelty object preference, which is the time spent exploring the new object minus the time exploring the old object over the total exploration time."}}, "data": [{"molecule": "CC[C@H](C)[C@H](NC(=O)[C@H](CCC(=O)O)NC(=O)[C@H](CO)NC(=O)[C@@H](NC(=O)[C@@H](N)CO)C(C)C)C(=O)N[C@@H](CCC(N)=O)C(=O)N[C@@H](CC(C)C)C(=O)N[C@@H](CCSC)C(=O)N[C@@H](Cc1cnc[nH]1)C(=O)N[C@@H](CC(N)=O)C(=O)N[C@@H](CC(C)C)C(=O)NCC(=O)N[C@@H](CCCCN)C(=O)N[C@@H](Cc1cnc[nH]1)C(=O)N[C@@H](CC(C)C)C(=O)N[C@@H](CC(N)=O)C(=O)N[C@@H](CO)C(=O)N[C@@H](CCSC)C(=O)N[C@@H](CCC(=O)O)C(=O)N[C@@H](CCCN=C(N)N)C(=O)N[C@H](C(=O)N[C@@H](CCC(=O)O)C(=O)N[C@@H](Cc1c[nH]c2ccccc12)C(=O)N[C@@H](CC(C)C)C(=O)N[C@@H](CCCN=C(N)N)C(=O)N[C@@H](CCCCN)C(=O)N[C@@H](CCCCN)C(=O)N[C@@H](CC(C)C)C(=O)N[C@@H](CCC(N)=O)C(=O)N[C@@H](CC(=O)O)C(=O)N[C@H](C(=O)N[C@@H](Cc1cnc[nH]1)C(=O)N[C@@H](CC(N)=O)C(=O)N[C@@H](Cc1ccccc1)C(=O)O)C(C)C)C(C)C", "note": "[PTH1-34]", "values": [{"measurement": "serum osteocalcin levels", "setting": "osteocalcin", "value": "increased serum osteocalcin levels more in 5×FAD mice than that in control mice"}, {"measurement": "Y maze total arm entries", "setting": "5×FAD mice", "value": "comparable arm entries to those of Veh-treated 5×FAD female mice"}]}]}
